Source: article PMC8621413, “New Antifungal Compound: Impact of Cosolvency, Micellization and Complexation on Solubility and Permeability Processes” (Pharmaceutics, 2021)
Converted amounts (≈) assume the structure as drawn. “And” between values parts separate entries of the source, which are not always exact repeats. Equal values may be shown once. Read-outs that look alike come from different tables or passages of the source.

Assays:
[1] = In vitro permeability, Franz diffusion cell, PermeaPad barrier; assay type: in vitro ADME; conditions: for Papp at 5 h: read-out: Papp, PermeaPad (PP)
Procedure: (§1) Permeability experiments were performed using the reverse dialysis set-up adapted to the Franz diffusion cell (PermeGear, Inc., Hellertown, PA, USA). This method was successfully applied by di Cagno et al. for the permeability evaluation of a whole set of diverse drugs. The donor solution of the investigated compound was placed in the lower chamber. The membrane was mounted between the donor and acceptor chambers. At the start of the experiment, the upper (acceptor) compartment was filled with the respective pure buffer. The donor solution was stirred with a magnetic stirrer bar. The samples of 0.5 mL were withdrawn from the receptor solution each 30 min over 5 h and replaced with the same volume of pure buffer. The volume of the donor solution in the lower compartment was 7 mL and the receptor volume was 1 mL. A schematic diagram of the equipment is illustrated in Figure 2.
(§2) Two types of barriers were applied for the permeability evaluation: the regenerated cellulose membrane (RC) with a molecular weight cut off MWCO 12–14 kDa (Standard Grade RC Dialysis Membrane, Flat Width 45 mm) and the PermeaPad (PP) barrier (PHABIOC, Germany, www.permeapad.com, accessed on 20 May 2021). The PermeaPad barrier was used as received from the supplier. The cellulose membrane was pretreated with distilled water for 30 min and the traces of water were removed with filter paper before use. The membrane effective surface area was 0.785 cm^2. Buffer solution pH 2.0 was applied throughout the experiment due to impossibility of the drug detection in the receptor solution at pH 7.4, where S-119 solubility is extremely low. […] The temperature of the system was maintained at 37.0 ± 0.1 °C. The concentrations of the sample solutions were measured using spectrophotometer (Spectramax 190; Molecular devices, Molecular Devices Corporation, California, CA, USA) in 96-well UV black plates (Costar) at λ = 261 nm. The permeation plots were constructed as the amount of the permeated drug over the surface area (dQ/A) versus time (t). Flux (J) was calculated as a slope of permeation plots by the equation:(2) J=dQ/A×dt
(§3) The slope (J) normalized by the concentration of the drug in the donor compartment (C0) represents the apparent permeability coefficient (Papp):(3) Papp=J/C0
(§4) The average value of Papp from at least 3 experiments was taken into consideration.

[2] = cited from earlier work
[3] = cationic species of FCZ in acidic solution; second value, CD not printed (HP-β-CD assumed); cited from earlier work
[4] = cationic species of FCZ in acidic solution; first value, CD not printed (β-CD assumed); cited from earlier work
[5] = In vitro permeability, Franz diffusion cell, regenerated cellulose membrane; assay type: in vitro ADME; conditions: for Papp at 5 h: read-out: Papp, Cellulose Membrane (RC)
Procedure: as §1, §2, §3, §4

[6] = donor: pure buffer pH 2.0; cited from earlier work
[7] = Complexation with HP-β-CD (phase solubility, Higuchi and Connors); assay type: physicochemical; conditions: for Gibbs free energy of complexation (ΔGC0) / Stability constant (KS) / Complexation efficiency (CE): 25 °C; for Stability constant (KS): S-119/HP-β-CD complex; for Complexation efficiency (CE): S-119/HP-β-CD
Procedure: (§5) Excess amounts of S-119 were added to buffered aqueous solutions containing increasing concentrations of excipients.
(§6) In order to analyze the information on solubilization, micelle formation and complexation obtained in the present study, the standard Gibbs energy (at 25 °C) of the outlined processes was calculated by the following equations:(7) ΔGS0(Cexc)=−RTlnS2/S20, where ΔGS0(Cexc) —the standard free energy of solubilization—transferring a compound from the aqueous buffer solution to the excipient solution of a defined concentration (Cexc), S20 and S2 —the solubility of a drug in pure buffer and at a defined excipient concentration, respectively; R is the universal gas constant; T is the standard temperature of 25 °C (8) ΔGC^0=−RTlnKs where ΔGC0 is the change of the complexation Gibbs energy, KS is the stability constant of the complexation reaction (9) ΔGm/w0=−RTlnKm/w where ΔGm/w0 is the standard Gibbs energy of the partition between the micelle and water phases, Km/w is the partition coefficient.

[8] = set-up: method as in doi:10.1016/j.molliq.2021.116535; conditions: cited from earlier work
[9] = Complexation with β-CD (phase solubility, Higuchi and Connors); assay type: physicochemical; conditions: for Stability constant (KS): S-119/β-CD complex; for Stability constant (KS) / Complexation efficiency (CE) / Gibbs free energy of complexation (ΔGC0): 25 °C; for Complexation efficiency (CE): S-119/β-CD
Procedure: as §5, §6

[10] = cited from earlier work; remark: listed apart in the source
[11] = Complexation with O-M-β-CD (phase solubility, Higuchi and Connors); assay type: physicochemical; conditions: for Gibbs free energy of complexation (ΔGC0) / Stability constant (KS) / Complexation efficiency (CE): 25 °C; for Stability constant (KS): S-119/O-M-β-CD complex; for Complexation efficiency (CE): S-119/O-M-β-CD
Procedure: as §5, §6

[12] = Micellar solubilization by non-ionic surfactants (solubilization capacity, micelle/water partition); conditions: F127; pH 7.4; 25 °C
Procedure: Moreover, the increase in the surfactant concentration can reduce the number of hydrogen binding sites available for the association of the compound and surfactant. At that point, the surfactant molecules interact with water, affect its structuring and hinder the interactions with positively charged species. […] To this end, the solubilization capacity (χ) representing the amount of the compound that can be solubilized by one mole of polymer was calculated using the following equation [53]:(4) χ=(S2−S20)/(Csurf−CMC) where S2 and S20 are the total solute solubility at a particular concentration of surfactant solution and the intrinsic solute solubility, respectively; Csurf is the surfactant concentration; CMC is the surfactant critical micelle concentration. All concentrations are expressed in molarity. Taking into account that above the CMC the concentration of surfactant monomers is equal to the CMC, the concentration of micelles can be determined as (Csurf − CMC). The CMC of Brij S20 and F127 were taken from the literature [54, 55, 56, 57]. […] Besides this, a micelle/water molar partition coefficient (Km/w) was derived using the following equation [58]:(5) Km/w=Sm/S20=(S2−S20)/S20
The favorable/unfavorable character of any process can be assessed using Gibbs free energy.

[13] = Complexation with α-CD (phase solubility, Higuchi and Connors); assay type: physicochemical; conditions: for Stability constant (KS): S-119/α-CD complex; for Stability constant (KS) / Complexation efficiency (CE) / Gibbs free energy of complexation (ΔGC0): 25 °C; for Complexation efficiency (CE): S-119/α-CD
Procedure: as §5, §6

[14] = Phase solubility study: equilibrium solubility of S-119 in buffers with excipients; assay type: physicochemical; conditions: for solubility enhancement vs pure buffer: pH 2.0
Procedure: as §5, §6

[15] = pH 2, donor: pure buffer pH 2.0, 37 °C
[16] = donor: 1.5 w/v% 6-O-M-β-CD in buffer pH 2.0, 37 °C
[17] = donor: 1.5 w/v% HP-β-CD in buffer pH 2.0, 37 °C
[18] = donor: 1.5 w/v% β-CD in buffer pH 2.0, 37 °C
[19] = donor: pure buffer pH 2.0, 37 °C
[20] = pH 2, donor: 1.5 w/v% 6-O-M-β-CD in buffer pH 2.0, 37 °C
[21] = pH 2, donor: 1.5 w/v% HP-β-CD in buffer pH 2.0, 37 °C
[22] = pH 2, donor: 1.5 w/v% β-CD in buffer pH 2.0, 37 °C

In the case of OC(Cn1cncn1)(Cn1cncn1)c1ccc(F)cc1F [FCZ, fluconazole], the “flux J, PermeaPad (PP)” value ([1]; 5 h, pH 2) is given as 3.50 × 10^−5 µM∙cm^−2∙s^−1, the solubility growth ([2]; 0.0016 M aqueous β-CD solution) is given as 1.1 fold and the solubility increase ([2]; 0.004 M HP-β-CD) is given as 1.2 fold. For the same compound, the higher solubility ([2]; 0.08 M aqueous HP-β-CD) was 4 fold, the solubility enhancement ([2]; aqueous 0.02 M β-CD) was 1.84 fold and the KS [3] was 13.5 M⁻¹. For the same compound, the KS [4] was 10.7 M⁻¹, the “flux J, Cellulose Membrane (RC)” value ([5]; 5 h, pH 2) was 1.31 × 10^−4 µM∙cm^−2∙s^−1 and the Papp at 5 h [5, 15] was 49 ×10⁻⁶ cm/s. The “Papp, PermeaPad (PP)” value [6] was “(1.74 ± 0.03) × 10^−5 cm∙s^−1”.

In the case of OC(CN1CCN(CC(O)(Cn2cncn2)c2ccc(F)cc2F)CC1)(Cn1cncn1)c1ccc(F)cc1F (stereo not drawn) [S-119, 3,3′-(piperazine-1,4-diyl)bis(2-(2,4-difluorophenyl)-1-(1H-1,2,4-triazol-1-yl)propan-2-ol)], the “permeability class (classification of di Cagno et al. for PermeaPad)” value ([1]; 1.5 w/v% CDs in donor solution, pH 2.0) is reported as “low-medium permeability class”, the “permeability decrease vs pure buffer” value ([1]; PP barrier, 1.5 w/v% O-M-β-CD donor solution, pH 2.0) is reported as 2.63 fold and the “permeability class (classification of di Cagno et al. for PermeaPad)” value ([1]; buffer pH 2.0) is reported as “highly permeated substance”. For the same compound, the “flux J, PermeaPad (PP)” value [1, 16] was 1.01 × 10^−5 µM∙cm^−2∙s^−1, the “flux J, PermeaPad (PP)” value [1, 17] was 1.00 × 10^−5 µM∙cm^−2∙s^−1 and the “flux J, PermeaPad (PP)” value [1, 18] was 9.93 × 10^−6 µM∙cm^−2∙s^−1. The “flux J, PermeaPad (PP)” value [1, 19] was 2.20 × 10^−5 µM∙cm^−2∙s^−1, the Papp at 5 h [1, 20] was 5.62 ×10⁻⁶ cm/s and the Papp at 5 h [1, 21] was 7.81 ×10⁻⁶ cm/s. For the same compound, the Papp at 5 h [1, 22] was 6.12 ×10⁻⁶ cm/s, the Papp at 5 h [1, 15] was 14.8 ×10⁻⁶ cm/s and the “phase solubility diagram type (Higuchi and Connors classification)” value (“phase solubility diagram type” for short) ([7]; HP-β-CD, both pHs) was “AL-type”. For the same compound, the “Gibbs free energy of complexation (ΔGC0)” value ([7]; HP-β-CD, pH 2.0) was -1.57 kcal/mol, the “complex stability relative to FCZ complex” value ([7]; HP-β-CD, pH 7.4) was 52 fold and the “Gibbs free energy of complexation (ΔGC0)” value ([7]; HP-β-CD, pH 7.4) was -4.577 kcal/mol. The “Stability constant (KS)” value ([7]; pH 2.0) was 14.0 ± 0.6 M⁻¹, the “Stability constant (KS)” value ([7]; pH 7.4) was 2261.0 ± 79.0 M⁻¹ and the “Complexation efficiency (CE)” value ([7]; pH 2.0) was 6.2%. The “Complexation efficiency (CE)” value ([7]; pH 7.4) was 9.1%, the “solubility in aqueous solutions” value ([8]; pH 2.0) was 4450 µM (≈ 2490 µg/mL) and the “solubility in aqueous solutions” value ([8]; pH 7.4) was 40.1 µM (≈ 22.5 µg/mL). The “Stability constant (KS)” value ([9]; pH 2.0) was 27.4 ± 1.0 M⁻¹ and 27.4 M⁻¹, the “Stability constant (KS)” value ([9]; pH 7.4) was 4424.9 ± 162.7 M⁻¹ and the “Complexation efficiency (CE)” value ([9]; pH 2.0) was 12.2%. For the same compound, the “Complexation efficiency (CE)” value ([9]; pH 7.4) was 17.7%, the “phase solubility diagram type” value ([9]; β-CD, linear region 0 to 0.003 M CD) was “BS-type” and the “Gibbs free energy of complexation (ΔGC0)” value ([9]; β-CD, pH 2.0) was -1.96 kcal/mol. For the same compound, the “complex stability relative to FCZ complex” value ([9]; β-CD, pH 7.4) was 47 fold, the “Gibbs free energy of complexation (ΔGC0)” value ([9]; β-CD, pH 7.4) was -4.974 kcal/mol and the “logD^oct” value [10] was 1.43. The “phase solubility diagram type” value ([11]; O-M-β-CD, both pHs) was “AL-type”, the “Gibbs free energy of complexation (ΔGC0)” value ([11]; O-M-β-CD, pH 2.0) was -1.74 kcal/mol and the “Gibbs free energy of complexation (ΔGC0)” value ([11]; O-M-β-CD, pH 7.4) was -4.866 kcal/mol. The “Stability constant (KS)” value ([11]; pH 2.0) was 18.7 ± 0.7 M⁻¹, the “Stability constant (KS)” value ([11]; pH 7.4) was 3693.4 ± 185.3 M⁻¹ and the “Complexation efficiency (CE)” value ([11]; pH 2.0) was 8.3%. For the same compound, the “Complexation efficiency (CE)” value ([11]; pH 7.4) was 14.8%, the “Gibbs free energy of micelle formation (ΔGm/w0)” value [12] was -6.205 kcal/mol and the “Stability constant (KS)” value ([13]; pH 2.0) was 5.0 ± 0.2 M⁻¹ and 5 M⁻¹. The “Stability constant (KS)” value ([13]; pH 7.4) was 304.4 ± 17 M⁻¹, the “Complexation efficiency (CE)” value ([13]; pH 2.0) was 2.2% and the “Complexation efficiency (CE)” value ([13]; pH 7.4) was 1.2%. For the same compound, the “phase solubility diagram type” value ([13]; α-CD, both pHs) was “AL-type”, the “Gibbs free energy of complexation (ΔGC0)” value ([13]; α-CD, pH 2.0) was -0.956 kcal/mol and the “Gibbs free energy of complexation (ΔGC0)” value ([13]; α-CD, pH 7.4) was -3.387 kcal/mol. The “permeability decrease vs pure buffer” value ([5]; RC membrane, 1.5 w/v% HP-β-CD donor solution, pH 2.0) was 1.87 fold, the “flux J, Cellulose Membrane (RC)” value [5, 16] was 2.68 × 10^−5 µM∙cm^−2∙s^−1 and the “flux J, Cellulose Membrane (RC)” value [5, 17] was 2.21 × 10^−5 µM∙cm^−2∙s^−1. For the same compound, the “flux J, Cellulose Membrane (RC)” value [5, 18] was 2.90 × 10^−5 µM∙cm^−2∙s^−1, the “flux J, Cellulose Membrane (RC)” value [5, 19] was 3.49 × 10^−5 µM∙cm^−2∙s^−1 and the Papp at 5 h [5, 20] was 23.1 ×10⁻⁶ cm/s. It also gave a Papp at 5 h [5, 21] of 14.5 ×10⁻⁶ cm/s, a Papp at 5 h [5, 22] of 19.6 ×10⁻⁶ cm/s and a Papp at 5 h [5, 15] of 27.1 ×10⁻⁶ cm/s. For the same compound, the “solubility growth vs pure buffer” value ([14]; 0.0015 M β-CD, pH 7.4) was 6.8 fold, the “solubility growth vs pure buffer” value ([14]; 0.01 M HP-β-CD, pH 7.4) was 24 fold and the “solubility growth vs pure buffer” value ([14]; 0.07 M HP-β-CD, pH 7.4) was 151 fold. For the same compound, the “solubility growth vs pure buffer” value ([14]; 20% PVP) was 232 fold, the “solubility enhancement vs pure buffer” value ([14]; 10 w/v% PEG 6000) was 1.45 fold and the “solubility enhancement vs pure buffer” value ([14]; 10 w/v% PEG 35000) was 1.20 fold. The “solubility enhancement vs pure buffer” value ([14]; 10 w/v% PVP) was 1.32 fold, the “growth of solubility vs pure buffer” value ([14]; pH 7.4, 10 w/v% Brij S20) was 199 fold and the “growth of solubility vs pure buffer” value ([14]; pH 7.4, 10 w/v% F-127) was 281 fold. For the same compound, the “extent of the solubilization vs pure buffer” value ([14]; pH 7.4, PEG 6000) was 193 fold and the “extent of the solubilization vs pure buffer” value ([14]; pH 7.4, PVP) was 232 fold.
